Experimental data published in patent US4596806A, “7-piperidino-1,2,3,5-tetrahydroimidazo[2,1-b]-quinazolin-2-one having platelet aggregation inhibitory activity” (Daiichi Seiyaku Co., Ltd., priority 1983, dated 1986).
Values after ≈ are worked out from the molar mass of the structure shown. Where two headings read alike, the source gives them in different places.

Columns and labels:
[1] = system: B16BL6; test: Test of Inhibition on Pulmonary Metastasis, B16BL6; assay type: in vivo, C57BL/6 mouse; conditions: day 13, mean ± standard error
Experimental: 1×10^5 cells/animal of B16BL6 or 7×10^5 cells/animal of 3LL were inoculated to the tail vein of 10 to 12 6-week-old C57BL/6 male mice per group (body weight: about 18.5 g). The compound (I) (dihydrochloride monohydrate) dissolved in a physiological saline solution (J.P.) was administered to each animal at a dose of 1, 3 or 10 mg/kg orally 24 hours, 1 hour before and 1 hour after the inoculation, or intravenously immediately before the inoculation. On the 13th day from the inoculation of B16BL6 or 11th day from the inoculation of 3LL, the number of metastatic nodules in the lungs was counted using an operating microscope.

[2] = system: platelet aggregation; test: Test of Platelet Aggregation Inhibition (in vitro), human PRP; assay type: cell-based; conditions: for IC50: Homo sapiens, Platelet, human blood, read-out: Platelet Aggregation Inhibitory Activity (in vitro: IC50)
Experimental: The test was performed as follows in accordance with the method of Ashida et al, Thrombosis and Haemostasis, Vol. 40, p542 (1979).
Blood was taken by puncture from the heart of a Wistar Imamichi rat under anesthesia with pentobarbital into a syringe containing 1/10 volume of a 3.13% aqueous solution of sodium citrate dihydrate, and the citrated blood was centrifuged to obtain a platelet-rich-plasma (PRP). In the same manner, citrated blood was collected from the vein of a healthy human who had not taken aspirin or any other anti-inflammatory agent since before 10 days, followed by centrifugation to obtain PRP. 0.005 ml of each test compound was added to 0.445 ml each of these PRP samples, and the system was warmed at 30° C. for 1 minute. 0.05 ml of an aggregation inducer (ADP or collagen) was then added thereto, and platelet aggregation was determined according to the method of Born, Nature, Vol. 194, p927 (1962). The inhibitory activity of platelet aggregation was expressed in terms of 50% inhibition concentration, and the results obtained are shown in Table 2.

[3] = system: pancreatic juice secretion; test: Test of Stimulation on Pancreatic Juice Secretion in Dog; assay type: in vivo, dog (adult mongrel); conditions: for total output amount of bicarbonate ions as compared with the control: 30 minutes after administration; for Pancreatic Juice Secretion, Total: total 0-60 min; for total volume of pancreatic juice as compared with the control (100%): total after 60 minutes
Experimental: Adult mongrel dogs (male and female) having a body weight of 11.8 to 15.8 Kg were anesthetized with Nembutal and Phenobal and a cannula was inserted into pancreatic duct. A solution of Compound (I) dissolved in a physiological saline solution was administered intravenously from femoral vein at a dose of 0.5 ml/Kg. The volume of pancreatic juice was determined in a polyethylene tube connected to the cannula, and the bicarbonate ion concentration in the pancreatic juice was determined by neutralization titration. As a control, a physiological saline solution was administered intravenously.

[4] = system: Water Immersion and Immobilization-induced Gastric Ulcer; test: Effect on Water Immersion and Immobilization-induced Gastric Ulcer in Rats; assay type: in vivo, rat (Donryu male); conditions: p.o.
Experimental: Donryu male rats having a body weight of 352 to 414 g were subjected to the stress-induced gastric ulceration test by water-immersion and immobilization [Takagi and Okabe, Japan J. Pharmacol., 18, 9-18 (1968)] at a water temperature of 20° to 22° C. for 7 hours. Compound (I) was administered orally in the form of a suspension in a 0.5% aqueous CMC solution at a dose of 5 ml/Kg 30 minutes before loading the stress. After the test period, the rats were sacrificed and the hyperemic area and the erosious area on the stomach inside wall were measured to determine % inhibition of the ulcer.

[5] = system: 3LL-induced aggregation; test: Test of Inhibition of Platelet Aggregation Caused by Cancer Cells (ex vivo), 3LL; assay type: in vivo, C57BL/6 mouse
Experimental: The compound of the invention (dihydrochloride monohydrate) dissolved in a physiological saline solution (J.P.) was intravenously or orally administered to a 7-week-old C57BL/6 male mouse (body weight: about 20 g). Three minutes after the intravenous administration or 1 hour later from the oral administration, blood was taken from the abdominal vein into a syringe containing 1/10 volume of a 3.13% aqueous solution of sodium citrate dihydrate and PRP was prepared as described before in Test Example 6. The PRP was placed in a reaction tube under the same conditions as in Test Example 6, and 5 μl of a 200 mM calcium chloride aqueous solution was added thereto. One minute later, 50 μl of a B16BL6 (5×10^4 cells/50 μl)- or a 3LL (2×10^6 cells/50 μl)-cell suspension was added to the system. In the same manner as in Test Example 6, platelet aggregation was determined.

[6] = Solubility Test (water-solubility); assay type: physicochemical

Structure (SMILES): O=C1CN2Cc3cc(N4CCCCC4)ccc3N=C2N1 [Compound (I), 7-piperidino-1,2,3,5-tetrahydroimidazo[2,1-b]quinazolin-2-one]
- Number of Metastatic Nodules in the Lungs ([1]; 1 mg/kg): 5.5 ± 1.1
- Number of Metastatic Nodules in the Lungs ([1]; 3 mg/kg): 5.3 ± 1.1
- Number of Metastatic Nodules in the Lungs ([1]; 10 mg/kg): 6.4 ± 1.1
- IC50 ([2]; inducer ADP): 2500 nM
- IC50 ([2]; inducer collagen): 530 nM
- anti-platelet aggregation activity (in words) ([2]; in vitro, Table 2 results (human and rat PRP)): substantially equal to that of BL-3459 and BL-4162
- total output amount of bicarbonate ions as compared with the control ([3]; 300 μg/Kg): 198%
- bicarbonate ion concentration in pancreatic juice as compared with the control ([3]; 1000 μg/Kg): 266%
- total output amount of bicarbonate ions as compared with the control ([3]; 1000 μg/Kg): 674%
- bicarbonate ion concentration in pancreatic juice as compared with the control ([3]; i.v. 100 μg/Kg): 109%
- total output amount of bicarbonate ions as compared with the control ([3]; i.v. 100 μg/Kg): 116%
- Amount of Bicarbonate Ion Secretion ([3]; i.v. 100 μg/kg): 44.6 ± 9.3 µEq/h
- Bicarbonate Ion Concentration ([3]; i.v. 100 μg/kg): 44.5 ± 6.1 mEq/l
- activity on the pancreatic juice secretion (in words) ([3]; i.v. 100 μg/kg): did not show any significant activity
- Pancreatic Juice Secretion ([3]; i.v. 100 μg/kg, 0-15 min): 323 ± 81 µL
- Pancreatic Juice Secretion ([3]; i.v. 100 μg/kg, 15-30 min): 223 ± 45 µL
- Pancreatic Juice Secretion ([3]; i.v. 100 μg/kg, 30-45 min): 178 ± 31 µL
- Pancreatic Juice Secretion ([3]; i.v. 100 μg/kg, 45-60 min): 226 ± 48 µL
- Pancreatic Juice Secretion, Total ([3]; i.v. 100 μg/kg): 950 ± 185 µL
- bicarbonate ion concentration in pancreatic juice as compared with the control ([3]; i.v. 300 μg/Kg): 130%
- total volume of pancreatic juice as compared with the control (100%) ([3]; i.v. 300 μg/Kg): 161%
- Amount of Bicarbonate Ion Secretion ([3]; i.v. 300 μg/kg): 65.9 ± 9.6 µEq/h
- Bicarbonate Ion Concentration ([3]; i.v. 300 μg/kg): 45.8 ± 2.1 mEq/l
- Pancreatic Juice Secretion ([3]; i.v. 300 μg/kg, 0-15 min): 521 ± 112 µL
- Pancreatic Juice Secretion ([3]; i.v. 300 μg/kg, 15-30 min): 321 ± 53 µL
- Pancreatic Juice Secretion ([3]; i.v. 300 μg/kg, 30-45 min): 291 ± 44 µL
- Pancreatic Juice Secretion ([3]; i.v. 300 μg/kg, 45-60 min): 310 ± 31 µL
- pancreatic juice secretion as compared with the control (100%) ([3]; i.v. 300 μg/kg, after 15 minutes): 214%
- Pancreatic Juice Secretion, Total ([3]; i.v. 300 μg/kg): 1444 ± 214 µL
- total volume of pancreatic juice as compared with the control (100%) ([3]; i.v. 1000 μg/Kg): 254%
- Amount of Bicarbonate Ion Secretion ([3]; i.v. 1000 μg/kg): 224 ± 24.7 µEq/h
- Bicarbonate Ion Concentration ([3]; i.v. 1000 μg/kg): 79.8 ± 5.6 mEq/l
- Pancreatic Juice Secretion ([3]; i.v. 1000 μg/kg, 0-15 min): 1363 ± 117 µL
- Pancreatic Juice Secretion ([3]; i.v. 1000 μg/kg, 15-30 min): 573 ± 69 µL
- Pancreatic Juice Secretion ([3]; i.v. 1000 μg/kg, 30-45 min): 455 ± 100 µL
- Pancreatic Juice Secretion ([3]; i.v. 1000 μg/kg, 45-60 min): 414 ± 112 µL
- pancreatic juice secretion as compared with the control (100%) ([3]; i.v. 1000 μg/kg, after 15 minutes): 440%
- pancreatic juice secretion as compared with the control (100%) ([3]; i.v. 1000 μg/kg, after 30 minutes): 202%
- Pancreatic Juice Secretion, Total ([3]; i.v. 1000 μg/kg): 2805 ± 225 µL
- Ulcer Index, Erosious Area ([4]; 30 mg/kg): 17.8 ± 5.7 mm
- Ulcer Index, Erosious Area, Inhibition ([4]; 30 mg/kg): 32%
- Ulcer Index, Hyperemic Area ([4]; 30 mg/kg): 19.4 ± 9.0 mm
- Ulcer Index, Hyperemic Area, Inhibition ([4]; 30 mg/kg): 69%
- Ulcer Index, Erosious Area ([4]; 100 mg/kg): 1.3 ± 0.8 mm
- Ulcer Index, Erosious Area, Inhibition ([4]; 100 mg/kg): 95%
- Ulcer Index, Hyperemic Area ([4]; 100 mg/kg): 0 mm
- Ulcer Index, Hyperemic Area, Inhibition ([4]; 100 mg/kg): 100%
- Ulcer Index, Erosious Area ([4]; 300 mg/kg): 2.6 ± 1.3 mm
- Ulcer Index, Erosious Area, Inhibition ([4]; 300 mg/kg): 90%
- Ulcer Index, Hyperemic Area ([4]; 300 mg/kg): 0 mm
- Ulcer Index, Hyperemic Area, Inhibition ([4]; 300 mg/kg): 100%
- delay of 3LL-induced aggregation (ex vivo) ([5]; 10 mg/kg (i.v.)): ≥ 150%
- inhibition of 3LL-induced aggregation (ex vivo) ([5]; 30 mg/kg (i.v.)): completely inhibited
- solubility ([6]; Water at pH 4): 4.1 mg/mL (≈ 15.2 mM)
- solubility ([6]; pH 2, Tap Water, solution pH about 2): 270 mg/mL (≈ 999 mM)
